Reference: ChEMBL document CHEMBL3227970, “The benzodiazepine story” (J Med Chem, 1979)
Values joined by “and” are separate entries in the source; they are usually repeats but may differ in a detail not shown here. Equal entries are not always repeated. Active and inactive are the calls of the source. The rule behind the calls is not given here.

Experiments:
Felis catus = experiment: Muscle relaxing activity in po dosed cat; assay type: functional
Mus musculus [1] = experiment: Anticonvulsant activity in po dosed mouse assessed as reduction of minimal electroshock-induced seizures; assay type: functional
Mus musculus [2] = species on record: Mus musculus; experiment: Toxicity in mouse; assay type: organism-based; settings: in vivo
Mus musculus [3] = experiment: Induction of taming effect in po dosed mouse by foot shock method; assay type: functional
Rhesus monkey = experiment: Induction of taming effect in monkey by foot shock method; assay type: functional, organism-based; settings: Macaca mulatta
Mus musculus [4] = experiment: Anticonvulsant activity in po dosed mouse assessed as reduction of pentylenetetrazole-induced seizures; assay type: functional
Mus musculus [5] = experiment: Induction of muscle relaxation/sedation in po dosed mouse by inclined screen test; assay type: functional
Mus musculus [6] = experiment: Anticonvulsant activity in po dosed mouse assessed as reduction of maximal electroshock-induced seizures; assay type: functional
Mus musculus [7] = species on record: Mus musculus; experiment: Toxicity in mouse assessed as effect on central nervous system; assay type: organism-based; settings: in vivo

Compound | Activity (Felis catus) | Activity (Mus musculus [1]) | Activity (Mus musculus [2]) | Activity (Mus musculus [3]) | Activity (Rhesus monkey) | Activity (Mus musculus [4]) | Activity (Mus musculus [5]) | Activity (Mus musculus [6]) | Activity (Mus musculus [7])
CNC1=Nc2ccc(Cl)cc2C(c2ccccc2)=[N+]([O-])C1.Cl [CHLORDIAZEPOXIDE HYDROCHLORIDE] | 2 mg/kg | 150 mg/kg | 620 mg/kg | 40 mg/kg | Active | 18 mg/kg | 100 mg/kg | 92 mg/kg | Non-toxic
CN(C)CCCN1c2ccccc2Sc2ccc(Cl)cc21 [CHLORPROMAZINE] | 2.5 mg/kg | 600 mg/kg |  | 20 mg/kg |  | 42 mg/kg | 17 mg/kg | 150 mg/kg | Toxic
O=C1C[N+]([O-])=C(c2ccccc2)c2cc(Cl)ccc2N1 [DEMOXEPAM] | 2 mg/kg | 150 mg/kg |  | 20 mg/kg |  | 15 mg/kg | 100 mg/kg | 150 mg/kg | 
CN1C(=O)CN=C(c2ccccc2)c2cc(Cl)ccc21 [DIAZEPAM] |  |  |  |  |  |  | 75 mg/kg and 30 mg/kg |  | 
CCCC(C)(COC(N)=O)COC(N)=O [MEPROBAMATE] | 100 mg/kg | 167 mg/kg |  | 250 mg/kg |  | 150 mg/kg | 250 mg/kg | 200 mg/kg | 
CCC1(c2ccccc2)C(=O)NC(=O)NC1=O [PHENOBARBITAL] | 10 mg/kg | 90 mg/kg |  | 80 mg/kg |  | 75 mg/kg | 120 mg/kg | 18 mg/kg | 
COC(=O)[C@H]1[C@H]2C[C@@H]3c4[nH]c5cc(OC)ccc5c4CCN3C[C@H]2C[C@@H](OC(=O)c2cc(OC)c(OC)c(OC)c2)[C@@H]1OC [RESERPINE] |  |  |  |  |  |  |  |  | Toxic
